What was measured:
Assay in all cases: area under growth-rate inhibition curve (AUC GRI) (dimensionless (GR-based AUC)); higher = less growth inhibition
Settings in all cases: exposure time: 72 h; concentrations: 0.1, 1, 10 uM
BT474-LTR = tested on: BT474-LTR
In short: (§1)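 Six breast cancer cell line models (two triple-negative lines, plus parental and lapatinib + trastuzumab-resistant HER2+ lines) were plated at optimised log-phase densities and exposed to compound at 0.1, 1 or 10 µM for 72 h. Cells were fixed in 4% paraformaldehyde, and nuclei were stained with Hoechst 33342 or DAPI, imaged and counted. Area under the growth-rate inhibition curve came from 2 biological replicates, with growth corrected using Day 0 plates, untreated Day 3 plates and DMSO controls.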

BT474-P = tested on: BT474-P
In short: as §1

MDA-MB-231 = tested on: MDA-MB-231
In short: as §1

MDA-MB-468 = tested on: MDA-MB-468
In short: as §1

SKBR3-LTR = tested on: SKBR3-LTR
In short: as §1

SKBR3-P = tested on: SKBR3-P
In short: as §1

SMILES | area under growth-rate inhibition curve (BT474-LTR) | area under growth-rate inhibition curve (BT474-P) | area under growth-rate inhibition curve (MDA-MB-231) | area under growth-rate inhibition curve (MDA-MB-468) | area under growth-rate inhibition curve (SKBR3-LTR) | area under growth-rate inhibition curve (SKBR3-P)
C[NH+]1CCC[C@@H]1CCO[C@](C)(c1ccccc1)c1ccc(Cl)cc1.O=C([O-])/C=C/C(=O)O [Clemastine Fumarate] | 1.02 | 0.941 | 1.02 | 0.932 | 0.958 | 0.898
CCN(CC)CCOc1ccc(C(=C(Cl)c2ccccc2)c2ccccc2)cc1.O=C(O)CC(O)(CC(=O)O)C(=O)O [Clomifene citrate] | 0.876 | 0.796 | 0.915 | 0.94 | 0.941 | 0.914
Cl.Clc1cccc(Cl)c1NC1=NCCN1 [Clonidine HCl] | 1.16 | 1.08 | 1.05 | 1.07 | 1.06 | 1.04
COC(=O)[C@H](c1ccccc1Cl)N1CCc2sccc2C1 [Clopidogrel] | 1.07 | 1.06 | 1 | 1.03 | 1.06 | 1.01
CN1CCN(C2=Nc3cc(Cl)ccc3Nc3ccccc32)CC1 [Clozapine] | 1.09 | 1.06 | 1.04 | 1.03 | 1.07 | 1.01
CN1CCN(C(c2ccccc2)c2ccccc2)CC1.[Cl-].[Cl-].[H+].[H+] [Cyclizine 2HCl] | 1.07 | 1.03 | 1.03 | 1.02 | 1 | 1.01
CN1CCC(=C2c3ccccc3C=Cc3ccccc32)CC1.[Cl-].[H+] [Cyproheptadine HCl] | 1.03 | 1.03 | 1.02 | 1 | 1.09 | 1
CCOc1ccc(Cc2cc([C@@H]3O[C@H](CO)[C@@H](O)[C@H](O)[C@H]3O)ccc2Cl)cc1 [Dapagliflozin] | 1.07 | 1.01 | 1.01 | 1.01 | 1.05 | 1.01
CN(C)[C@@H](CCOc1cccc2ccccc12)c1ccccc1.[Cl-].[H+] [Dapoxetine HCl] | 1.03 | 0.985 | 1.02 | 0.991 | 1.03 | 0.974
C[N+](C)(C)CCCCCCCCCC[N+](C)(C)C.[Br-].[Br-] [Decamethonium Bromide] | 1.1 | 1.06 | 1.04 | 1.03 | 1.04 | 1.03
Clc1ccc2c(c1)CCc1cccnc1C2=C1CCNCC1 [Desloratadine] | 1.07 | 0.984 | 1 | 0.988 | 1.03 | 0.998
N=C(N)NCCC[C@@H](NC(=O)[C@@H]1CCCN1C(=O)[C@@H]1CSSCCC(=O)N[C@@H](Cc2ccc(O)cc2)C(=O)N[C@@H](Cc2ccccc2)C(=O)N[C@@H](CCC(N)=O)C(=O)N[C@@H](CC(N)=O)C(=O)N1)C(=O)NCC(N)=O [Desmopressin] | 0.999 | 0.995 | 1.01 | 1.02 | 1.01 | 1.02
CN(C)CC(c1ccc(O)cc1)C1(O)CCCCC1.O=C(O)CCC(=O)O (stereo not given) [Desvenlafaxine Succinate] | 1.09 | 1.06 | 1.02 | 1.05 | 1.08 | 1.01
CN(C)CC(c1ccc(O)cc1)C1(O)CCCCC1 (stereo not given) [Desvenlafaxine] | 1.07 | 1.03 | 1 | 1.03 | 1.05 | 1
Cc1cccc(Cc2cnc[nH]2)c1C.Cl [Detomidine HCl] | 1.04 | 1.01 | 1.03 | 1.02 | 1.08 | 0.991
Cc1cccc(C(C)c2c[nH]cn2)c1C (stereo not given) [Dexmedetomidine] | 1.1 | 1.04 | 1.04 | 1.02 | 1.04 | 1.04
Br.COc1ccc2c(c1)[C@@]13CCCCC1C(C2)N(C)CC3 (stereo not given in full) [Dextromethorphan hydrobromide] | 1.04 | 1.01 | 1.04 | 1.03 | 1.06 | 1.02
CC12CCC3=C4CCC(=O)C=C4CCC3C1CCC2(O)CC#N (stereo not given) [Dienogest] | 1.12 | 1.05 | 1.03 | 1.03 | 1.04 | 1.01
CCCC(=O)O[C@]1(C(=O)COC(C)=O)CC[C@H]2[C@@H]3C[C@H](F)C4=CC(=O)C=C[C@]4(C)[C@@]3(F)[C@@H](O)C[C@@]21C [Difluprednate] | 1.02 | 0.976 | 0.975 | 1.03 | 1.04 | 0.939
CN1C[C@H](C(=O)N[C@]2(C)O[C@@]3(O)[C@@H]4CCCN4C(=O)[C@H](Cc4ccccc4)N3C2=O)C[C@@H]2c3cccc4[nH]cc(c34)C[C@H]21.CS(=O)(=O)O [Dihydroergotamine mesylate] | 1.01 | 0.974 | 0.986 | 1.02 | 1.05 | 0.947
COS(=O)(=O)[O-].C[N+]1(C)CCC(=C(c2ccccc2)c2ccccc2)CC1 [Diphemanil Methylsulfate] | 1.03 | 1.05 | 1.03 | 1.01 | 1.03 | 0.971
OCCN(CCO)c1nc(N2CCCCC2)c2nc(N(CCO)CCO)nc(N3CCCCC3)c2n1 [Dipyridamole] | 1.12 | 1.04 | 0.97 | 0.962 | 1.05 | 1.05
CC(CCc1ccc(O)cc1)NCCc1ccc(O)c(O)c1.[Cl-].[H+] (stereo not given) [Dobutamine hydrochloride] | 1.01 | 0.992 | 1.02 | 1.04 | 1.07 | 1.03
O=c1[nH]c2ccccc2n1CCCN1CCC(n2c(=O)[nH]c3cc(Cl)ccc32)CC1 [Domperidone] | 1 | 0.993 | 1.01 | 0.926 | 1.04 | 0.962
NCCc1ccc(O)c(O)c1.[Cl-].[H+] [Dopamine HCl] | 1.11 | 1.04 | 1.02 | 1.03 | 1.07 | 1.02

— the supplement of paper PMC9763283
